According to patent publication US9815796B2 (Merck Sharp & Dohme Corp., priority 2013, dated 2017):

molecular target: Rhesus PDE2A3 (Macaca mulatta, UniProt B3VTJ2); test: PDE2 fluorescence polarization (IMAP FP) inhibition assay, rhesus enzyme; assay type: biochemical, rhesus macaque; details: Rhesus PDE2, Lab A, at 1 uM
Method in brief: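 Rhesus PDE2A3 came from lysate of transiently transfected AD293 cells, diluted to give 20% substrate conversion. Substrate was 50 nM FAM-cAMP with 1 uM cGMP activator in Tris pH 7.2/MgCl2 buffer, run 60 min at room temperature over 10-point 3-fold dilutions in 1% DMSO. Read-out was IMAP fluorescence polarization (mP) after ≥1 h binding.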

Rhesus PDE2A3, sequence (B3VTJ2 1-941): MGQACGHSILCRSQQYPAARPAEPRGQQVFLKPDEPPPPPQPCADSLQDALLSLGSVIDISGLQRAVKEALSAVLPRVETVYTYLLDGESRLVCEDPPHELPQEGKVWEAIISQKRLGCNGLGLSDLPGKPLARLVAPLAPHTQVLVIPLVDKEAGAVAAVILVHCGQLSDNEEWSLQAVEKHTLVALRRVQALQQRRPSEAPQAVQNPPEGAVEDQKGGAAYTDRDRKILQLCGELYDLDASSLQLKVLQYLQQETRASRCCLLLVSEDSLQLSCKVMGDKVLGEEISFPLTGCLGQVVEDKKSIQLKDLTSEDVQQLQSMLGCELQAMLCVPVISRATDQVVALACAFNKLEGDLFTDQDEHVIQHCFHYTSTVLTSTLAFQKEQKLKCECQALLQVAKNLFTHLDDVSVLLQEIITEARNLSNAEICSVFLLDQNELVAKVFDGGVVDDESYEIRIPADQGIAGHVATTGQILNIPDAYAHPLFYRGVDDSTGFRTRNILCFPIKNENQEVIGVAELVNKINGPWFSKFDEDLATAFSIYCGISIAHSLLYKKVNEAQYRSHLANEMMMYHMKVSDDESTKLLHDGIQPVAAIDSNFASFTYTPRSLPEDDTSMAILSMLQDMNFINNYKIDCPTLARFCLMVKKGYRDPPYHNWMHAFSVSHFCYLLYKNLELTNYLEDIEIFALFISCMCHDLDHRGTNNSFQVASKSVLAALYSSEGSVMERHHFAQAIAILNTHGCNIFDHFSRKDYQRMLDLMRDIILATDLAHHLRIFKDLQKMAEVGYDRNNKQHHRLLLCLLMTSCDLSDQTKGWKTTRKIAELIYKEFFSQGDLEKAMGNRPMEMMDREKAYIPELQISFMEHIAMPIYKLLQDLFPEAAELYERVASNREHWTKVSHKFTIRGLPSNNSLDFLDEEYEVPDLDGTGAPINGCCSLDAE

| SMILES | Rhesus PDE2 % inh. at 1 uM - Lab A |
| --- | --- |
| O=C(NCc1c(Cl)cc(C(F)(F)F)cc1Cl)c1cc(=O)[nH]c(-c2ccccc2)n1 [Example 156] | 9 % inh. |

same assay, conditions: Rhesus PDE2, Lab A; read-out: Rhesus PDE2 Ki (nM) - Lab A

| SMILES | Ki |
| --- | --- |
| COCc1nc(C(=O)NC(C)(C)c2ccc(C(F)(F)F)cc2)cc(=O)[nH]1 [Example 124, 2-(methoxymethyl)-N-{1-methyl-1-[4-(trifluoromethyl)phenyl]ethyl}-6-oxo-1,6-dihydropyrimidine-4-carboxamide] | 283 nM |
| CC(NC(=O)c1cc(=O)[nH]c(-c2ncccn2)n1)c1ncc(C(F)(F)F)cn1 (stereo not drawn) [Example 105, 6-oxo-N-{1-[5-(trifluoromethyl)pyrimidin-2-yl]ethyl}-1,6-dihydro-2,2′-bipyrimidine-4-carboxamide] | 3470 nM |
| O=C(NCc1c(Cl)cc(C(F)(F)F)cc1Cl)c1cc(=O)[nH]c(-c2ccccc2)n1 [Example 156] | > 1000 nM |
| CN(Cc1cc(F)c(F)c(F)c1)C(=O)c1cc(=O)[nH]c(C2CC2)n1 [Example 206, 2-cyclopropyl-N-methyl-6-oxo-N-(3,4,5-trifluoromethyl)-1,6-dihydropyrimidine-4-carboxamide] | 24300 nM |
| CC(C)[C@@H](NC(=O)c1cc(=O)[nH]c(-c2ncccn2)n1)c1ccc(SC(F)(F)F)cc1 [Example 97, N-[(1R)-2-methyl-1-{4-[(trifluoromethyl)sulfanyl]phenyl}propyl]-6-oxo-1,6-dihydro-2,2′-bipyrimidine-4-carboxamide] | 1.5 nM |
| Cc1nc(C(=O)NC(c2ccccc2)c2ccc(C(F)(F)F)cc2)cc(=O)[nH]1 (stereo not drawn) [Example 34, 2-methyl-6-oxo-N-{phenyl[4-(trifluoromethyl)phenyl]methyl}-1,6-dihydropyrimidine-4-carboxamide] | 1420 nM |
| CC(C)c1ccc(CCNC(=O)c2cc(=O)[nH]c(-c3ccccc3)n2)cc1 [Example 348, N-{2-[4-(1-methylethyl)phenyl]ethyl}-6-oxo-2-phenyl-1,6-dihydropyrimidine-4-carboxamide] | ~877 nM |
| Cc1nc(C(=O)N[C@H](C)c2ccc(S(=O)(=O)C(F)(F)F)cc2)cc(=O)[nH]1 [Example 331, 2-Methyl-6-oxo-N-[(1R)-1-{4-[(trifluoromethyl)sulfonyl]phenyl}ethyl]-1,6-dihydropyrimidine-4-carboxamide] | 304 nM |
| C[C@@H](NC(=O)c1cc(=O)[nH]c(-c2ccccc2)n1)c1ccc(O)cc1 [Example 339, N-[(1R)-1-(4-hydroxyphenyl)ethyl]-6-oxo-2-phenyl-1,6-dihydropyrimidine-4-carboxamide] | ~417 nM |
| CC(C)(NC(=O)c1cc(=O)[nH]c(-c2ncccn2)n1)c1ccc(OC(F)(F)F)c(F)c1 [Example 71, N-{1-[3-fluoro-4-(trifluoromethoxy)phenyl]-1-methylethyl}-6-oxo-1,6-dihydro-2,2′-bipyrimidine-4-carboxamide] | 1570 nM |
| CC(NC(=O)c1cc(=O)[nH]c(C2CC2)n1)c1ncc(C(F)(F)F)cn1 (stereo not drawn) [Example 203, 2-cyclopropyl-6-oxo-N-{1-[5-(trifluoromethyl)pyrimidin-2-yl]ethyl}-1,6-dihydropyrimidine-4-carboxamide] | 4320 nM |
| COc1ccc([C@@H](C)NC(=O)c2cc(=O)[nH]c(-c3ncccn3)n2)c(OC)c1 [Example 88, N-[(1R)-1-(2,4-dimethoxyphenyl)ethyl]-6-oxo-1,6-dihydro-2,2′-bipyrimidine-4-carboxamide] | 2360 nM |
| C[C@@H](NC(=O)c1cc(=O)[nH]c(-c2ccccc2)n1)c1ccc(CN(C)C)cc1 [Example 365, N-[(1R)-1-{4-[(dimethylamino)methyl]phenyl}ethyl]-6-oxo-2-phenyl-1,6-dihydropyrimidine-4-carboxamide] | 6850 nM |
| O=C(NCc1c(Cl)cc(C(F)(F)F)cc1Cl)c1cc(=O)[nH]c(C2CC2)n1 [Example 239, 2-cyclopropyl-N-[2,6-dichloro-4-(trifluoromethyl)benzyl]-6-oxo-1,6-dihydropyrimidine-4-carboxamide] | 3070 nM |
| COc1cc(C(F)(F)F)ccc1[C@H](C)NC(=O)c1cc(=O)[nH]c(C2CC2)n1 [Example 223, 2-cyclopropyl-N-{(1S)-1-[2-methoxy-4-(trifluoromethyl)phenyl]ethyl}-6-oxo-1,6-dihydropyrimidine-4-carboxamide] | 1020 nM |
| CC(NC(=O)c1cc(=O)[nH]c(-c2ccccc2)n1)c1ccccc1C(F)(F)F (stereo not drawn) [Example 169, 6-oxo-2-phenyl-N-{1-[2-(trifluoromethyl)phenyl]ethyl}-1,6-dihydropyrimidine-4-carboxamide] | 3420 nM |
| COc1cc(C(F)(F)F)ccc1[C@@H](C)NC(=O)c1cc(=O)[nH]c(-c2ccccc2)n1 [Example 188, N-{(1R)-1-[2-methoxy-4-(trifluoromethyl)phenyl]ethyl}-6-oxo-2-phenyl-1,6-dihydropyrimidine-4-carboxamide] | 1010 nM |
| COc1ccc([C@@H](C)NC(=O)c2cc(=O)[nH]c(C3CC3)n2)cc1 [Example 216, 2-cyclopropyl-N-[(1R)-1-(4-methoxyphenyl)ethyl]-6-oxo-1,6-dihydropyrimidine-4-carboxamide] | 247 nM |
| COC(=O)c1ccc(C(C)(C)NC(=O)c2cc(=O)[nH]c(C3CC3)n2)cc1 [Example 215, methyl 4-(1-{[(2-cyclopropyl-6-oxo-1,6-dihydropyrimidin-4-yl)carbonyl]amino}-1-methylethyl)benzoate] | 967 nM |
| COc1cc(C(C)NC(=O)c2cc(=O)[nH]c(-c3ncccn3)n2)ccc1C(F)(F)F (stereo not drawn) [Example 104, N-{1-[3-methoxy-4-(trifluoromethyl)phenyl]ethyl}-6-oxo-1,6-dihydro-2,2′-bipyrimidine-4-carboxamide] | 524 nM |
| Cc1nc(C(=O)N[C@H](C)c2cccc(C(F)(F)F)c2)cc(=O)[nH]1 [Example 271, 2-methyl-6-oxo-N-{(1R)-1-[3-(trifluoromethyl)phenyl]ethyl}-1,6-dihydropyrimidine-4-carboxamide] | 2960 nM |
| Cc1nc(C(=O)NC(CO)c2ccc(C(F)(F)F)cc2)cc(=O)[nH]1 (single isomer, unassigned) [Example 311, (S)- or (R)-N-{2-hydroxy-1-[4-(trifluoromethyl)phenyl]ethyl}-2-methyl-6-oxo-1,6-dihydropyrimidine-4-carboxamide] | 9120 nM |
| CC(NC(=O)c1cc(=O)[nH]c(-c2ccccc2)n1)c1ncc(C(F)(F)F)cn1 (stereo not drawn) [Example 170, 6-oxo-2-phenyl-N-{1-[5-(trifluoromethyl)pyrimidin-2-yl]ethyl}-1,6-dihydropyrimidine-4-carboxamide] | 2340 nM |
| Cc1cc(C(F)(F)F)ccc1C(C)NC(=O)c1cc(=O)[nH]c(-c2ncccn2)n1 (stereo not drawn) [Example 90, N-{1-[2-methyl-4-(trifluoromethyl)phenyl]ethyl}-6-oxo-1,6-dihydro-2,2′-bipyrimidine-4-carboxamide] | 732 nM |
| Cc1nc(C(=O)NC(C)c2cccc(-c3ccc(F)cc3)c2)cc(=O)[nH]1 (stereo not drawn) [Example 267, N-[1-(4′-fluorobiphenyl-3-yl)ethyl]-2-methyl-6-oxo-1,6-dihydropyrimidine-4-carboxamide] | 8060 nM |

same assay, conditions: Rhesus PDE2, Lab B; read-out: Rhesus PDE2 Ki (nM) - Lab B

| SMILES | Ki |
| --- | --- |
| CC(C)(NC(=O)c1cc(=O)[nH]c(-c2ncccn2)n1)c1ccc(S(F)(F)(F)(F)F)cc1 [Example 678, N-{1-methyl-1-[4-(pentafluoro-λ^6-sulfanyl)phenyl]ethyl}-6-oxo-1,6-dihydro-2,2′-bipyrimidine-4-carboxamide] | 501 nM |
| C[C@H](NC(=O)c1cc(=O)[nH]c(-c2ccccc2)n1)c1ccc(Cl)cc1 [Example 394, N-[(1S)-1-(4-chlorophenyl)ethyl]-6-oxo-2-phenyl-1,6-dihydropyrimidine-4-carboxamide] | 2220 nM |
| CCOC(=O)c1ccc([C@@H](C)NC(=O)c2cc(=O)[nH]c(-c3ncccn3)n2)cc1 [Example 432, ethyl 4-[(1R)-1-{[(6-oxo-1,6-dihydro-2,2′-bipyrimidin-4-yl)carbonyl]amino}ethyl]benzoate] | > 2970 nM |
| CC(C)c1ccc(CCNC(=O)c2cc(=O)[nH]c(-c3ccccc3)n2)cc1 [Example 348, N-{2-[4-(1-methylethyl)phenyl]ethyl}-6-oxo-2-phenyl-1,6-dihydropyrimidine-4-carboxamide] | 1500 nM |
| C[C@@H](NC(=O)c1cc(=O)[nH]c(-c2ccccc2)n1)c1ccc(O)cc1 [Example 339, N-[(1R)-1-(4-hydroxyphenyl)ethyl]-6-oxo-2-phenyl-1,6-dihydropyrimidine-4-carboxamide] | 653 nM |
| Cc1nc(C(=O)NC(C)(C)c2ccc(S(F)(F)(F)(F)F)cc2)cc(=O)[nH]1 [Example 677, 2-methyl-N-{1-methyl-1-[4-(pentafluoro-λ^6-sulfanyl)phenyl]ethyl}-6-oxo-1,6-dihydropyrimidine-4-carboxamide] | 129 nM |
| Cc1nc(C(=O)N[C@@H](c2ccc(C(F)(F)F)c([N+](=O)[O-])c2)C(C)(C)C)cc(=O)[nH]1 [Example 531, N-{(1R)-2,2-dimethyl-1-[3-nitro-4-(trifluoromethyl)phenyl]propyl}-2-methyl-6-oxo-1,6-dihydropyrimidine-4-carboxamide] | 32 nM |
| COc1ccc(C(C)(C)c2nc(C(=O)N[C@@H](c3ccc(C(F)(F)F)cc3)C(C)(C)C)cc(=O)[nH]2)cc1 [Example 456, N-{(1R)-2,2-dimethyl-1-[4-(trifluoromethyl)phenyl]propyl}-2-[1-(4-methoxyphenyl)-1-methylethyl]-6-oxo-1,6-dihydropyrimidine-4-carboxamide] | 98 nM |
| Cc1nc(C(=O)N[C@H](C)c2cc(F)c(C(F)(F)F)cc2F)cc(=O)[nH]1 [Example 616] | 112 nM |
| C[C@@H](NC(=O)c1cc(=O)[nH]c(-c2ncccn2)n1)c1cc(F)c(C(F)(F)F)cc1F [Example 429, N-{(1R)-1-[2,5-difluoro-4-(trifluoromethyl)phenyl]ethyl}-6-oxo-1,6-dihydro-2,2′-bipyrimidine-4-carboxamide] | 42 nM |
| C[C@H](NC(=O)c1cc(=O)[nH]c(-c2ccccc2)n1)c1cccc2ccccc12 [Example 362, N-[(1S)-1-naphthalen-1-ylethyl]-6-oxo-2-phenyl-1,6-dihydropyrimidine-4-carboxamide] | ~24700 nM |
| CC(NC(=O)c1cc(=O)[nH]c(-c2ccccc2)n1)c1cccc(OC(F)(F)F)c1 (stereo not drawn) [Example 422, 6-oxo-2-phenyl-N-{1-[3-(trifluoromethoxy)phenyl]ethyl}-1,6-dihydropyrimidine-4-carboxamide] | 1840 nM |
| CC(NC(=O)c1cc(=O)[nH]c(-c2ccccc2)n1)c1ccc(O)cc1 (stereo not drawn) [Example 369, N-[1-(4-hydroxyphenyl)ethyl]-6-oxo-2-phenyl-1,6-dihydropyrimidine-4-carboxamide] | 8780 nM |
